Results on 33 compounds are retold here after US10093683B2, “Factor XIa inhibitors” (Merck Sharp & Dohme Corp., priority 2014, dated 2018).

The assay deals with human Factor XIa (Homo sapiens (Human), UniProt P03951). The assay is described as follows: Factor XIa Assay. The assay is classed as biochemical. Particulars: read-out: FXIa Ki. In a few lines:
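Ki derived from the dependence of Vo/Vi on inhibitor concentration under a competitive-inhibition model, after pre-equilibration of enzyme and inhibitor. Reaction: 40 pM human FXIa, 100 μM Z-Gly-Pro-Arg-AFC, HEPES 50 mM pH 7.4 with NaCl, CaCl2 and PEG 8000; run at room temperature or 37° C.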

Where [1] appears, read: purified human Factor XIa 40 pM, Z-Gly-Pro-Arg-AFC 100 μM, pH 7.4.

The structures appear in SMILES notation. Structures can show the parent of a compound that is named as a salt. Where two headings read alike, the source gives them in different places. Where only a bound is given, the exact number is not on record here.

Chain of human Factor XIa (P03951 388-625): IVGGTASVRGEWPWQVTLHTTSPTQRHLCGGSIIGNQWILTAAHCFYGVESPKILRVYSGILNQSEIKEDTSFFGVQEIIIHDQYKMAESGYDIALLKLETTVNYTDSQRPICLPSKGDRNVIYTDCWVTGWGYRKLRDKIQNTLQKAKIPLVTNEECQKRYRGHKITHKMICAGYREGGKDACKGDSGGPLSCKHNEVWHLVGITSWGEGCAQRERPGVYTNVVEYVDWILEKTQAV
Chain of human Factor XIa (P03951 19-387 partner): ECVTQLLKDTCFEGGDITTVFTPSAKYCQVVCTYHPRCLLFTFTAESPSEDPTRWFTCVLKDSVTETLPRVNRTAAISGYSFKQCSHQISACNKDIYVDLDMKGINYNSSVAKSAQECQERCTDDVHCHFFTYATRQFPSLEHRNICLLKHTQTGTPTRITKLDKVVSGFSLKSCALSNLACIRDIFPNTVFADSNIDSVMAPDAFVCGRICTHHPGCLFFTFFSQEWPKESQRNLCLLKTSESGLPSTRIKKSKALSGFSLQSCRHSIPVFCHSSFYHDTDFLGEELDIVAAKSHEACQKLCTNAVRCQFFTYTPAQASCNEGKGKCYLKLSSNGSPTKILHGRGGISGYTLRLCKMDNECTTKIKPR

`O=C1Nc2ccc(Cl)cc2[C@@]2(CCCN(C(=O)[C@H](CC3CC3)NC(=O)c3ccc(F)c(F)c3)C2)O1` [Example 202, N-((S)-1-((R)-6-chloro-2-oxo-1,2-dihydrospiro[benzo[d][1,3]oxazine-4,3′-piperidin]-1′-yl)-3-cyclopropyl-1-oxopropan-2-yl)-3,4-difluorobenzamide]: the Ki is 925 nM.

On to `COC(=O)Nc1ccc(C(=O)N[C@@H](CC2CC2)C(=O)N2CCC[C@@]3(C2)OC(=O)Nc2ccc(Cl)cc23)cn1` [Example 204], for which the Ki is 244 nM.

Consider `Nc1ccc(C(=O)N[C@@H](CC2CC2)C(=O)N2CCC[C@@]3(C2)OC(=O)Nc2ccc(Cl)cc23)cn1` [Example 205], for which the inhibition constant (Ki) was 72.2 nM.

On to `O=C1Nc2ccc(Cl)cc2[C@@]2(CCCN(C(=O)[C@H](CC3CC3)NC(=O)c3cnc4c(c3)CCN4)C2)O1` [Example 207], for which the Ki amounted to 8750 nM.

Take `O=C1Nc2ccc(Cl)c(F)c2[C@@]2(CCCN(C(=O)[C@H](CC3CC3)NC(=O)c3ccc4[nH]c(=O)cc(O)c4c3)C2)O1` [Example 210]: the inhibitory constant (Ki) worked out at 0.22 nM.

In the case of `CC(=O)Oc1cc(=O)[nH]c2ccc(C(=O)N[C@@H](Cc3ccccc3)C(=O)N3CCC[C@@]4(C3)OC(=O)Nc3ccc(Cl)c(F)c34)cc12` [Example 211], the Ki was determined as 39.6 nM.

Turning to `O=C1Nc2ccc(Cl)c(F)c2[C@@]2(CCCN(C(=O)[C@H](Cc3ccccc3)NC(=O)c3ccc(NCC(F)(F)F)nc3)C2)O1` [Example 212], the Ki is 133 nM.

`N#Cc1n[nH]c2cc(C(=O)N[C@@H](Cc3ccccc3)C(=O)N3CC[C@@]4(C3)OC(=O)Nc3ccc(Cl)cc34)ccc12` [Example 218]: the Ki worked out at 246 nM.

`NC(=O)c1n[nH]c2cc(C(=O)N[C@@H](Cc3ccccc3)C(=O)N3CC[C@@]4(C3)OC(=O)Nc3ccc(Cl)cc34)ccc12` [Example 219]: the inhibition constant Ki came to 2310 nM.

For the compound `O=C1Nc2ccc(Cl)cc2[C@@]2(CCCN(C(=O)[C@H](Cc3ccccc3)NC(=O)c3ccc4c(O)cc(=O)[nH]c4c3)C2)O1` [Example 221], the inhibitory constant (Ki) is 518 nM.

In the case of `COC(=O)Nc1ccc(CN[C@@H](Cc2ccccc2)C(=O)N2CC[C@@]3(C2)OC(=O)Nc2ccc(Cl)cc23)cc1` [Example 222, Methyl (4-((((S)-1-((R)-6-chloro-2-oxo-1,2-dihydrospiro[benzo[d][1,3]oxazine-4,3′-pyrrolidin]-1′-yl)-1-oxo-3-phenylpropan-2-yl)amino)methyl)phenyl)carbamate], the inhibition constant Ki was determined as 8750 nM.

For the compound `COC(=O)Nc1ccc(C(N[C@@H](Cc2ccccc2)C(=O)N2CCC3(C2)OC(=O)Nc2ccc(Cl)cc23)C(F)(F)F)cc1` (stereo partly drawn) [Example 223, Methyl (4-(1-(((S)-1-((R)-6-chloro-2-oxo-1,2-dihydrospiro[benzo[d][1,3]oxazine-4,3′-pyrrolidin]-1′-yl)-1-oxo-3-phenylpropan-2-yl)amino)-2,2,2-trifluoroethyl)phenyl)carbamate], the inhibition constant Ki worked out at 8750 nM.

In the case of `CC(N[C@@H](Cc1ccccc1)C(=O)N1CC[C@@]2(C1)OC(=O)Nc1ccc(Cl)cc12)c1ccc2c(N)n[nH]c2c1` (stereo partly drawn) [Example 224, (4R)-1′-((1-(3-amino-1H-indazol-6-yl)ethyl)-L-phenylalanyl)-6-chlorospiro[benzo[d][1,3]oxazine-4,3′-pyrrolidin]-2(1H)-one dihydrochloride], the Ki was determined as 8750 nM.

For `CCOP(=O)(OCC)c1ccc(C(=O)N[C@H](Cc2ccccc2)C(=O)N2CCC[C@@]3(C2)OC(=O)Nc2ccc(Cl)c(F)c23)cc1` [Example 229, diethyl (4-(((R)-1-((R)-6-chloro-5-fluoro-2-oxo-1,2-dihydrospiro[benzo[d][1,3]oxazine-4,3′-piperidin]-1′-yl)-1-oxo-3-phenylpropan-2-yl)carbamoyl)phenyl)phosphonate], the Ki came to 8750 nM.

In the case of `O=C1Nc2ccc(Cl)c(F)c2[C@@]2(CCCN(C(=O)[C@H](Cc3ccccc3)NC(=O)c3ccc(-c4nc(=O)o[nH]4)cc3)C2)O1` [Example 232, N-((S)-1-((R)-6-chloro-5-fluoro-2-oxo-1,2-dihydrospiro[benzo[d][1,3]oxazine-4,3′-piperidin]-1′-yl)-1-oxo-3-phenylpropan-2-yl)-4-(5-oxo-2,5-dihydro-1,2,4-oxadiazol-3-yl)benzamide], the inhibition constant (Ki) amounted to 258 nM.

Regarding `COC(=O)NC12CC(C(=O)N[C@@H](Cc3ccccc3)C(=O)N3CCC[C@@]4(C3)OC(=O)Nc3ccc(Cl)c(F)c34)(C1)C2` [Example 238], the Ki was 104 nM.

Take `O=C1Nc2ccc(Cl)cc2[C@@]2(CCCN(C(=O)[C@H](CC3CC3)NC(=O)c3csc(C(=O)O)n3)C2)O1` [Example 239]: the Ki was found to be 405 nM.

As to `COC(=O)Nc1ccc(C(=O)N[C@@H](Cc2ccccc2)C(=O)N2CCC[C@@]3(C2)OC(=O)Nc2ccc(Cl)c(F)c23)nn1` [Example 242], the Ki is 177 nM.

As for `COC(=O)NC12CCC(C(=O)N[C@@H](Cc3ccccc3)C(=O)N3CCC[C@@]4(C3)OC(=O)Nc3ccc(Cl)c(F)c34)(CC1)CC2` [Example 243], the Ki is 96 nM.

Take `O=C1Nc2ccc(Cl)c(F)c2[C@@]2(CCCN(C(=O)[C@H](Cc3ccccc3)NC(=O)c3ccc(=O)[nH]c3)C2)O1` [Example 246]: the Ki was determined as 77.8 nM.

`O=C1Nc2ccc(Cl)c(F)c2[C@@]2(CCCN(C(=O)[C@H](Cc3ccccc3)NC(=O)c3ccc(-n4cn[nH]c4=O)cc3)C2)O1` [Example 247, N-((S)-1-((R)-6-chloro-5-fluoro-2-oxo-1,2-dihydrospiro[benzo[d][1,3]oxazine-4,3′-piperidin]-1′-yl)-1-oxo-3-phenylpropan-2-yl)-4-(5-oxo-1,5-dihydro-4H-1,2,4-triazol-4-yl)benzamide]: the Ki came out at 66.8 nM.

For `O=C1Nc2ccc(Cl)cc2C2(CCN(C(=O)[C@H](Cc3ccccc3)NC(=O)c3ccc4cc(C(=O)O)ccc4c3)C2)O1` (stereo partly drawn) [Example 259], the Ki was 298 nM.

Regarding `Nc1ccc2cc(C(=O)N[C@@H](Cc3ccccc3)C(=O)N3CCC4(C3)OC(=O)Nc3ccc(Cl)cc34)ccc2n1` (stereo partly drawn) [Example 261], the inhibition constant Ki worked out at 4050 nM.

Consider `O=C1Nc2ccc(Cl)cc2C2(CCN(C(=O)[C@H](Cc3ccccc3)NC(=O)c3ccc4ncc(O)nc4c3)C2)O1` (stereo partly drawn) [Example 262], for which the Ki came out at 512 nM.

Consider `O=C1Nc2ccc(Cl)cc2C2(CCN(C(=O)[C@H](Cc3ccccc3)NC(=O)c3ccc4c(c3)S(=O)(=O)N=CN4)C2)O1` (stereo partly drawn) [Example 263], for which the Ki was found to be 1970 nM.

For `O=C1Nc2ccc(Cl)c(F)c2[C@@]2(CCCN(C(=O)[C@H](Cc3cccc(F)c3)NC(=O)c3ccc(C(=O)NCCP(=O)(O)O)cc3)C2)O1` [Example 273, (2-(4-(((S)-1-((R)-6-Chloro-5-fluoro-2-oxo-1,2-dihydrospiro[benzo[d][1,3]oxazine-4,3′-piperidin]-1′-yl)-3-(3-fluorophenyl)-1-oxopropan-2-yl)carbamoyl)benzamido)ethyl)phosphonic acid], the inhibition constant (Ki) came out at 367 nM.

In the case of `COC(=O)Nc1ccc(NC(=O)N[C@@H](Cc2ccccc2)C(=O)N2CCC3(C2)OC(=O)Nc2ccc(Cl)cc23)cc1` (stereo partly drawn) [Example 275, methyl (4-(3-((2S)-1-(6-chloro-2-oxo-1,2-dihydrospiro[benzo[d][1,3]oxazine-4,3′-pyrrolidin]-1′-yl)-1-oxo-3-phenylpropan-2-yl)ureido)phenyl)carbamate], under setting [1], the inhibition constant (Ki) came out at 5000 nM.

`Nc1[nH]nc2c1CN(C(=O)N[C@@H](Cc1ccccc1)C(=O)N1CCC3(C1)OC(=O)Nc1ccc(Cl)cc13)C2` (stereo partly drawn) [Example 276, 3-amino-N-((2S)-1-(6-chloro-2-oxo-1,2-dihydrospiro[benzo[d][1,3]oxazine-4,3′-pyrrolidin]-1′-yl)-1-oxo-3-phenylpropan-2-yl)-4,6-dihydropyrrolo[3,4-c]pyrazole-5(2H)-carboxamide]: the Ki under setting [1] was 5000 nM.

Consider `O=C(Nc1ccc(C(=O)O)cc1)N[C@@H](Cc1ccccc1)C(=O)N1CCC2(C1)OC(=O)Nc1ccc(Cl)cc12` (stereo partly drawn) [Example 277, 4-(3-((2S)-1-(6-chloro-2-oxo-1,2-dihydrospiro[benzo[d][1,3]oxazine-4,3′-pyrrolidin]-1′-yl)-1-oxo-3-phenylpropan-2-yl)ureido)benzoic acid], for which, under setting [1], the inhibition constant (Ki) is 5000 nM.

On to `NC(=O)c1n[nH]c2c1CN(C(=O)N[C@@H](Cc1ccccc1)C(=O)N1CCC3(C1)OC(=O)Nc1ccc(Cl)cc13)C2` (stereo partly drawn) [Example 278, N5-((2S)-1-(6-chloro-2-oxo-1,2-dihydrospiro[benzo[d][1,3]oxazine-4,3′-pyrrolidin]-1′-yl)-1-oxo-3-phenylpropan-2-yl)-4,6-dihydropyrrolo[3,4-c]pyrazole-3,5(1H)-dicarboxamide], for which, under setting [1], the Ki is 5000 nM.

Regarding `O=C(NCc1cccc(C(=O)O)c1)N[C@@H](Cc1ccccc1)C(=O)N1CCC2(C1)OC(=O)Nc1ccc(Cl)cc12` (stereo partly drawn) [Example 279, 3-((3-((2S)-1-(6-chloro-2-oxo-1,2-dihydrospiro[benzo[d][1,3]oxazine-4,3′-pyrrolidin]-1′-yl)-1-oxo-3-phenylpropan-2-yl)ureido)methyl)benzoic acid], the Ki under setting [1] is 5000 nM.

As for `N#Cc1ccc(S(=O)(=O)N[C@@H](Cc2ccccc2)C(=O)N2CCC3(C2)OC(=O)Nc2ccc(Cl)cc23)cc1` (stereo partly drawn) [Example 280, N-((2S)-1-(6-chloro-2-oxo-1,2-dihydrospiro[benzo[d][1,3]oxazine-4,3′-pyrrolidin]-1′-yl)-1-oxo-3-phenylpropan-2-yl)-4-cyanobenzenesulfonamide], the Ki under setting [1] was determined as 5000 nM.

Regarding `CNC(=O)Nc1ccc(S(=O)(=O)N[C@@H](Cc2ccccc2)C(=O)N2CCC3(C2)OC(=O)Nc2ccc(Cl)cc23)c(Cl)c1` (stereo partly drawn) [Example 281, 2-chloro-N-((2S)-1-(6-chloro-2-oxo-1,2-dihydrospiro[benzo[d][1,3]oxazine-4,3′-pyrrolidin]-1′-yl)-1-oxo-3-phenylpropan-2-yl)-4-(3-methylureido)benzenesulfonamide], the Ki under setting [1] was not below 5000 nM.
